Results: paper PMC10541198, “Specific quinone reductase 2 inhibitors reduce metabolic burden and reverse Alzheimer’s disease phenotype in mice” (The Journal of Clinical Investigation, 2023)
Several values for one entry are separate records, joined by “and”; a condition that tells them apart may be missing. Equal entries are not always repeated.

Test system: p-tau
Assay: IHC of p-tau (AT8) in 5xFAD brain sections
Type: in vivo, mouse
Details: for p-tau normalized volume (individual mice): CA1, 5xFAD 1 month; for Figure 9C, IHC signal / Sup. Fig. 6-1C, IHC signal: individual animals; for p-Tau vs vehicle: cortex, 5xFAD 1 month
Source text: Following the behavioral experiments, we assessed brain pathologies associated with AD present in the 5xFAD mice ([37]). Therefore, 5 days following the last behavioral experiment, and 1 month after the start of YB-537 consumption, mice were sacrificed, and coronal brain sections were used for IHC. Since the CA1 region of the hippocampus is affected during AD pathogenesis ([37]), and this brain region is involved in the behavioral paradigms used here, we acquired images of CA1. This was done with an Olympus IX83 confocal microscope using the same settings, antibodies, and exposures in all mice. Images were analyzed using Imaris (Bitplane; see methods). For each mouse, 3 coronal sections were used per antibody. In each section, the same region of CA1 was acquired, using the same image frame size and resolution, at all possible depths of the section — using a Z-stack of the whole section — to allow measurement of the fluorescent antibody marker volume, which was normalized to the brain volume from which it was taken. First, we measured oxidative stress, as indicated by 4-HNE ([38]) (Abcam, ab48506).
Perfused and fixed brain slices were blocked with 10% normal donkey serum (DNS) and 0.2% triton (Sigma-Aldrich) in PBS. Antibodies, including 4-HNE (AbCam, ab48506), Iba1 (AbCam, ab5076), AT-8 (Thermo, MN1020), Amyloid β (AbCam, ab201060), diluted in PBS with 10% DNS, were incubated at 4°C overnight. Secondary antibodies including donkey-anti-goat Alexa Fluor 568 (AbCam, ab175704), donkey-anti-mouse Cy 5 (Jackson Immuno Research, 715-175-151), and donkey-anti-rabbit DyLight 488 (AbCam, ab98488) all diluted 1:500 in PBS with 1% BSA, were applied to the slices at RT for 2 hours the next day. Slices were mounted onto glass slides using DAPI containing Vectashield (H-1200). Images were taken using a confocal microscope (Olympus IX83). Three slices were used per mouse per antibody. Tiling images of the dorsal CA1 and cortex (Bregma: –1.58mm to –2.30mm) were taken using ×20 objective, acquiring a Z-stack of the whole section. Analysis of the images was done blind by an experimenter unaware of the experimental conditions or details, using Imaris (Bitplane) software. A surface reconstruction module was used to extract the data as volumes of the used markers (4-HNE, phospho-tau, amyloid β, GFAP, and Iba1). Marker volume and intensity were normalized to the corresponding brain volume. The normalized value was averaged for each triplicate and presented here. […]
Brains were then briefly removed and placed in chilled, 4% PFA for 48 h, f oll owe d by immersion in 30% sucrose in 0.1 M PBS for a furt her 48 h. Bra i ns wer e t h e n stored at -80°C, until t he y were sliced into 40µm coronal sections usinga Lei ca CM 1950cryostat. Sli ces were then washed x3 in PBS and bl oc ke d for 1 h at RT using 10% normal donkey serum (DNS) and 0.2% triton (Sigma-Aldrich) in PBS. Antibodies, including 4- HNE (1:500, AbCam, ab48506), Iba1 (1:2,000, AbCam, ab5076), GFAP (Abcam, ab53554), phospho- tau (1:1,000, Thermo, MN1020) and amyloid β (1:1,000, AbCam, ab201060) diluted in PBS with 10% DNS were incubated at 4°C overnight. The next day, the slices were washed x3 times in PBS, and secondary antibodies including donkey anti goat A l e x a Fluor 568 (AbCam, ab175704), donkey anti-mouse Cy 5 (Jackson Immuno Research, 715- 175- 151) and donkey anti-rabbit DyLight 488 (AbCam, ab98488) all diluted 1:500 in PBS with 1% BSA, were applied to the slices at RT for 2 h. Following the incubation, the slices were washed x3 times in PBS, mounted onto gl ass slides, were uniformly covered in DAPI containing Vectashield (H-1200) and coverslips were a dde d. […]

Cc1ccc(-c2cn3cccc(C)c3n2)cc1S(=O)(=O)N1CCNCC1 [YB-537]
p-tau normalized volume (individual mice) (Females): 0.0465 and 0.0384 and 0.0492 and 0.0132 and 0.0255 and 0.0111 and 0.0090 | p-tau normalized volume (individual mice) (Males): 0.0610 and 0.0859 and 0.0662 and 0.0488 and 0.0445 and 0.0550 and 0.1044 and 0.0487 and 0.0628 | p-tau normalized volume (individual mice) (Males + Females): 0.0465 and 0.0384 and 0.0492 and 0.0550 and 0.1044 and 0.0487 and 0.0628 and 0.0610 and 0.0859 and 0.0662 and 0.0488 and 0.0445 and 0.0132 and 0.0255 and 0.0111 and 0.0090 | Figure 9C, IHC signal (Cortex): 0.0130 and 0.0160 and 0.0210 and 0.0219 and 0.0108 and 0.0168 and 0.0118 and 0.0284 and 0.0147 | Sup. Fig. 6-1C, IHC signal (Females): 0.0087 and 0.0158 and 0.0323 and 0.0264 and 0.0119 and 0.0169 and 0.0098 | Figure 9C, IHC signal (Hippocampus): 0.0315 and 0.0219 and 0.0395 and 0.0356 and 0.0234 and 0.0118 and 0.0425 and 0.0378 and 0.0364 | Sup. Fig. 6-1C, IHC signal (Males): 0.0177 and 0.0343 and 0.0259 and 0.0422 and 0.0294 and 0.0273 and 0.0409 and 0.0167 and 0.0342 | p-Tau vs vehicle (females): unchanged | p-Tau vs vehicle (males): unchanged | p-Tau vs vehicle (total population): unchanged
